Literature values, collected in US8871812B2, “Therapeutic regimen comprising PEG-interferon, ribavirin and VX-950 for the treatment of hepatitis” (priority 2008, dated 2014).

Tested on: HCV
Conditions: monotherapy; cited from earlier work

Substance: interferon alfa
- cases with long term remission: ~25%
